The values below come from US12344595B2, “2-amino-n-phenyl-nicotinamides as NAV1.8 inhibitors” (Merck Sharp & Dohme LLC, priority 2018, dated 2025).

Each structure is given as a SMILES string.

As a reminder, the IC50 is the concentration that inhibits the measured activity by half. Lower therefore signals higher potency.

Chain of human Nav1.8 (Q9Y5Y9 whole entry): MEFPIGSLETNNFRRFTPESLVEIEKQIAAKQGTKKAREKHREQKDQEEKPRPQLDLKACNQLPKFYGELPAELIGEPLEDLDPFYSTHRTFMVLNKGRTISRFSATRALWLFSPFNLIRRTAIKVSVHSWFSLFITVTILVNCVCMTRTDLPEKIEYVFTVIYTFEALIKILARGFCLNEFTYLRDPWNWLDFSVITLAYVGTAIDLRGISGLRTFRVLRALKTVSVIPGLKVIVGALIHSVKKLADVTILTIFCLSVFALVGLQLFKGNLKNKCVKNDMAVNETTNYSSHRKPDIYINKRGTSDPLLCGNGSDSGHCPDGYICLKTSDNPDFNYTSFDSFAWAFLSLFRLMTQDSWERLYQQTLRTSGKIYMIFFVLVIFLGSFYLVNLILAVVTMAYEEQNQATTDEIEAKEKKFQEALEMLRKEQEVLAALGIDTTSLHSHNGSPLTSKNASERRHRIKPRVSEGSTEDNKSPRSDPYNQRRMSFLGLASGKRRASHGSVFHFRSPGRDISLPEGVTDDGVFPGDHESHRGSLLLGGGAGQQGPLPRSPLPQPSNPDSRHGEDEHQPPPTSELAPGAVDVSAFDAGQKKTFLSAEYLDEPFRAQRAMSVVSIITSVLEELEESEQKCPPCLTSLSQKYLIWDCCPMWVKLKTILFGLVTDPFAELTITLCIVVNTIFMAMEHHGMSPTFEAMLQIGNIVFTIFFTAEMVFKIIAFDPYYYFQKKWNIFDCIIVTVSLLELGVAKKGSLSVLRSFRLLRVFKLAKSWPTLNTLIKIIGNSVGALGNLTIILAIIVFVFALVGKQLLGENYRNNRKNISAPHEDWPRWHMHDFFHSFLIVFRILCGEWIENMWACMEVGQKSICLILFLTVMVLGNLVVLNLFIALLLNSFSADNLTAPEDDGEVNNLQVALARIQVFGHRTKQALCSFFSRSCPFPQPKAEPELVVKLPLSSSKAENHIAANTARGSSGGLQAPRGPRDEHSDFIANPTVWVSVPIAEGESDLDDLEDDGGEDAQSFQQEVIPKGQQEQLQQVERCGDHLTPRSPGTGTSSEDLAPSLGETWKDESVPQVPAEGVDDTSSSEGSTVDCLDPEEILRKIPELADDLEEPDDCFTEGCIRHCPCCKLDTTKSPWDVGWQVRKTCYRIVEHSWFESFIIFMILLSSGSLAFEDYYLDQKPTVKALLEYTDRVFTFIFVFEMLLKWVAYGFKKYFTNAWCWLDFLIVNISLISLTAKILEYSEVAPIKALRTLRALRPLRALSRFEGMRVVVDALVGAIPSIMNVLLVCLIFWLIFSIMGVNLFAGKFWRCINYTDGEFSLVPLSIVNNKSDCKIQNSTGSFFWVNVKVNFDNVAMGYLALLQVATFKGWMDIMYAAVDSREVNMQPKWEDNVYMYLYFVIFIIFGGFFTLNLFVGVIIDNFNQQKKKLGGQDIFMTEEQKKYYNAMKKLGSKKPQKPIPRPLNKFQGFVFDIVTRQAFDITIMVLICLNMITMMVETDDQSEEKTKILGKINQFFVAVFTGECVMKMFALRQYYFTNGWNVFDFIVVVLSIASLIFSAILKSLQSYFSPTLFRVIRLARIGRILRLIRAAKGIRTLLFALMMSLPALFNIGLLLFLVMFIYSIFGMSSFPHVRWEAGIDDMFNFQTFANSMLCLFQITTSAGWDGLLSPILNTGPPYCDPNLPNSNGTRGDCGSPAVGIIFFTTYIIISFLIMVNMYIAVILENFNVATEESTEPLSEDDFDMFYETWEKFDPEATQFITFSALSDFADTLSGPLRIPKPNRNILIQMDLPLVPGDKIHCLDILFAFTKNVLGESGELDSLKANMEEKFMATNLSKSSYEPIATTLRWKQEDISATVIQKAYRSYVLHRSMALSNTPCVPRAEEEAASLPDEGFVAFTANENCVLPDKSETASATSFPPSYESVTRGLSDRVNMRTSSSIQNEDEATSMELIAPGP

The assay concerns the target human Nav1.8 (Homo sapiens (Human), UniProt Q9Y5Y9). Kind of assay: Nav1.8 Qube automated patch-clamp assay. It counts as cell-based. The following applies: Nav1.8 Qube Assay; human Nav1.8 channels stably expressed in HEK 293 cells. The essentials:
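IC50 values came from Hill fitting of peak currents: pulse 1 for resting-state and pulse 10 for inactivated-state inhibition. Currents were recorded in stably transfected HEK293 cells at room temperature, with ten 20 ms steps to 10 mV at 1 Hz from a −90 mV hold. External solution was 150 mM NaCl-based; internal solution was CsF/CsCl.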
A general note: In patch-clamp work, channel activity is measured electrically.
The molecule `NS(=O)(=O)c1cccc(NC(=O)c2cc(C(F)(F)F)cnc2N2CC3(CCOCC3)C2)c1` [Example 81, 2-(7-oxa-2-azaspiro[3.5]nonan-2-yl)-N-(3-sulfamoyl-phenyl)-5-(trifluoro-methyl)nicotinamide] had a 50% inhibitory concentration (IC50) of 4.24 µM. For `C[Si](C)(C)c1cnc(N2CCC3(CC2)COC3)c(C(=O)Nc2cccc(S(N)(=O)=O)c2)c1` [Example 87, 2-(2-oxa-7-azaspiro-[3.5]nonan-7-yl)-N-(3-sulfamoylphenyl)-5-(trimethylsilyl)-nicotinamide], the IC50 is 7.88 µM. Compared with the last molecule, the IC50 is about 1.9-fold higher. Under `NS(=O)(=O)c1cccc(NC(=O)c2cc(C3COC3)cnc2N2CCCC(F)(F)CC2)c1` [Example 160, 2-(4,4-difluoroazepan-1-yl)-5-(oxetan-3-yl)-N-(3-sulfamoylphenyl)nicotinamide] stands 0.681 µM. `NS(=O)(=O)c1cccc(NC(=O)c2cc(C(F)(F)F)cnc2N2CCC3(CCCO3)CC2)c1` [Example 72, 2-(1-oxa-8-azaspiro[4.5]decan-8-yl)-N-(3-sulfamoyl-phenyl)-5-(trifluoro-methyl)pyridine-3-carboxamide]: it took 6.61 µM to reach half-maximal inhibition (IC50). Then `NS(=O)(=O)c1cccc(NC(=O)c2cc(-c3cccnc3)cnc2N2CCCCCC2)c1` [Example 34, 2-(azepan-1-yl)-5-(3-pyridyl)-N-(3-sulfamoyl-phenyl)pyridine-3-carboxamide], with 0.603 µM; and `C[Si](C)(C)c1cc(C(=O)Nc2cccc(S(N)(=O)=O)c2)c(N2CCCCCC2)nc1OC(F)(F)F` [Example 85, 2-(azepan-1-yl)-N-(3-sulfamoylphenyl)-6-(trifluoromethoxy)-5-(trimethylsilyl)nicotinamide], with 1.22 µM; and `C[C@H]1CN(c2ncc(C(F)(F)F)cc2C(=O)Nc2cccc(S(N)(=O)=O)c2)C[C@H](C(F)(F)F)O1` [Example 145, 2-[(2S,6R)-2-methyl-6-(trifluoromethyl)morpholin-4-yl]-N-(3-sulfamoyl-phenyl)-5-(trifluoro-methyl)pyridine-3-carboxamide], with 0.015 µM. Molecule `COc1nc(N2CCCCCC2)c(C(=O)Nc2cccc(S(N)(=O)=O)c2)cc1Br` [Example 156, 2-(azepan-1-yl)-5-bromo-6-methoxy-N-(3-sulfamoylphenyl)nicotinamide] registered a half-inhibitory concentration (IC50) of 0.019 µM. Then `Cc1cc(C(=O)Nc2cccc(S(C)(=O)=O)c2)c(N2CCCCCC2)nc1C` [Example 36, 2-(azepan-1-yl)-5,6-dimethyl-N-(3-methyl-sulfonylphenyl)pyridine-3-carboxamide], with 0.031 µM. Then `NS(=O)(=O)c1cccc(NC(=O)c2cc(C(F)(F)F)cnc2N2CCCC3(C2)CC3(F)F)c1` (single isomer, unassigned) [Example 126, 2-[(3S or 3R)-2,2-difluoro-5-azaspiro[2.5]-octan-5-yl]-N-(3-sulfamoylphenyl)-5-(trifluoromethyl)-pyridine-3-carboxamide], with 0.014 µM. Under `Cc1nc(N2CCCC(F)(F)CC2)c(C(=O)N(C)c2cccc(S(N)(=O)=O)c2)c(C)c1Cl` [Example 179, 5-chloro-2-(4,4-difluoroazepan-1-yl)-N,4,6-trimethyl-N-(3-sulfamoylphenyl)nicotinamide] stands 0.873 µM. The molecule `CC1(O)CCCN(c2ncc(C(F)(F)F)cc2C(=O)Nc2cccc(S(N)(=O)=O)c2)CC1` (stereo not shown) [Example 53, 2-(4-hydroxy-4-methyl-azepan-1-yl)-N-(3-sulfamoylphenyl)-5-(trifluoromethyl)-pyridine-3-carboxamide] yielded an IC50 of 0.304 µM.

`NS(=O)(=O)c1cccc(NC(=O)c2ccc(C(F)(F)F)nc2N2CCCCC2)c1` [Example 77, 2-(1-piperidyl)-N-(3-sulfamoylphenyl)-6-(trifluoromethyl) pyridine-3-carboxamide] came in with a concentration for half-maximal inhibition (IC50) of 0.286 µM.

The molecule `NC(=O)c1cccc(NC(=O)c2cc(C(F)(F)F)cnc2N2CCCC(F)(F)CC2)c1` [Example 106, N-(3-carbamoylphenyl)-2-(4,4-difluoroazepan-1-yl)-5-(trifluoro-methyl)pyridine-3-carboxamide] yielded an IC50 of 0.032 µM.

Consider `CS(=O)(=O)c1cccc(NC(=O)c2cc(C(F)(F)F)cnc2N2CCC3OCCC32)c1` (stereo not shown) [Example 104, 2-(2,3,3a,5,6,6a-hexahydrofuro[3,2-b]pyrrol-4-yl)-N-(3-methylsulfonylphenyl)-5-(trifluoromethyl) pyridine-3-carboxamide], for which the IC50 is 7.33 µM. Under `NS(=O)(=O)c1cccc(NC(=O)c2cc(C(F)(F)F)cnc2N2CCCCCC2)c1` [Example 44, 2-(azepan-1-yl)-N-(3-sulfamoylphenyl)-5-(trifluoromethyl)-pyridine-3-carboxamide] stands 0.0095 µM; under `CS(=O)(=O)c1cccc(NC(=O)c2cc(Cl)cnc2N2CCCC(F)(F)CC2)c1` [Example 173, 5-chloro-2-(4,4-difluoroazepan-1-yl)-N-(3-(methylsulfonyl)phenyl)nicotinamide], 0.0078 µM; under `NS(=O)(=O)c1cccc(NC(=O)c2cnc(C3CC3)nc2N2CCCC(F)(F)CC2)c1` [Example 180, 2-cyclopropyl-4-(4,4-difluoroazepan-1-yl)-N-(3-sulfamoylphenyl)pyrimidine-5-carboxamide], 0.024 µM. Then `COc1nc(N2CCCCCC2)c(C(=O)Nc2cccc(S(N)(=O)=O)c2)cc1C(F)(F)F` [Example 169, 2-(azepan-1-yl)-6-methoxy-N-(3-sulfamoylphenyl)-5-(trifluoromethyl)nicotinamide], with 0.042 µM. `Cc1nc(N2CCCCCC2)c(C(=O)Nc2cccc(C(N)=O)c2)cc1C#N` [Example 178, 2-(azepan-1-yl)-N-(3-carbamoylphenyl)-5-cyano-6-methyl-pyridine-3-carboxamide]: the half-maximal inhibitory concentration (IC50) was found to be 0.054 µM. The IC50 values of the last two molecules are within 1.5-fold of each other. Under `CS(=O)(=O)c1cccc(NC(=O)c2cc(C(F)(F)F)cnc2N2C[C@H]3CCCC[C@H]3C2)c1` [Example 97, 2-[(3aS,7aR)-1,3,3a,4,5,6,7,7a-octahydroisoindol-2-yl]-N-(3-methyl-sulfonylphenyl)-5-(trifluoromethyl) pyridine-3-carboxamide] stands 0.049 µM; under `NS(=O)(=O)c1cccc(NC(=O)c2cc(C(F)(F)F)cnc2N2CC3CCC(C3)C2)c1` (racemic) [Example 45, 2-[rac-3-azabicyclo[3.2.1]octan-3-yl]-N-(3-sulfamoyl-phenyl)-5-(trifluoro-methyl)pyridine-3-carboxamide], 0.012 µM; under `NS(=O)(=O)c1cccc(NC(=O)c2cc(C(F)(F)F)cnc2N2CC3CC(F)(F)C3C2)c1` (single isomer, unassigned) [Example 135, 2-[(1S,5R or 1R,5S)-6,6-difluoro-3-azabicyclo[3.2.0]heptan-3-yl]-N-(3-sulfamoyl-phenyl)-5-(trifluoro-methyl)pyridine-3-carboxamide], 0.037 µM. Under `NS(=O)(=O)c1cccc(NC(=O)c2ccc(OC(F)(F)F)nc2N2CCCCC2)c1` [Example 84, 2-(piperidin-1-yl)-N-(3-sulfamoylphenyl)-6-(trifluoromethoxy)nicotinamide] stands 0.248 µM; under `NS(=O)(=O)c1c(F)ccc(NC(=O)c2cc(C(F)(F)F)cnc2N2CCC(F)(F)CC2)c1F` [Example 28, N-(2,4-difluoro-3-sulfamoylphenyl)-2-(4,4-difluoropiperidin-1-yl)-5-(trifluoromethyl)nicotinamide], 0.211 µM; under `CS(=O)(=O)c1cccc(NC(=O)c2cc(C(F)(F)F)cnc2N2CCCCCCC2)c1` [Example 95, 2-(azocan-1-yl)-N-(3-methylsulfonylphenyl)-5-(trifluoromethyl)-pyridine-3-carboxamide], 0.02 µM. Regarding `Cc1nc(N2CCCC(F)(F)CC2)c(C(=O)Nc2cccc(S(C)(=O)=O)c2)cc1C#N` [Example 176, 5-cyano-2-(4,4-difluoroazepan-1-yl)-6-methyl-N-(3-methyl-sulfonylphenyl) pyridine-3-carboxamide], half-maximal inhibition (IC50) required 0.0073 µM. Compared with the last molecule, the IC50 is about 2.7-fold lower. Under `NS(=O)(=O)c1cccc(NC(=O)c2cc(C(F)(F)F)cnc2N2CC3CCC3(C(F)(F)F)C2)c1` (single isomer, unassigned) [Example 131, N-(3-sulfamoylphenyl)-5-(trifluoromethyl)-2-[(1S,5S or 1R,5R)-1-(trifluoromethyl)-3-azabicyclo[3.2.0]heptan-3-yl]pyridine-3-carboxamide] stands 0.113 µM. `Cc1cc(C(=O)Nc2cccc(S(N)(=O)=O)c2)c(N2CCCCCC2)nc1C` [Example 30, 2-(azepan-1-yl)-5,6-dimethyl-N-(3-sulfamoylphenyl) pyridine-3-carboxamide] returned a 50% inhibitory concentration (IC50) of 0.012 µM. This IC50 lies about 9.4-fold lower than the previous one.

In turn, `NS(=O)(=O)c1ccc(F)c(NC(=O)c2cc(C(F)(F)F)cnc2N2CCCCC2)c1` [Example 116, N-(2-fluoro-5-sulfamoyl-phenyl)-2-(1-piperidyl)-5-(tri-fluoromethyl)pyridine-3-carboxamide] had an IC50 of 3 µM.

Consider `NS(=O)(=O)c1cccc(NC(=O)c2cc(F)c(Cl)nc2N2CCCCCC2)c1` [Example 92, 2-(azepan-1-yl)-6-chloro-5-fluoro-N-(3-sulfamoylphenyl)-pyridine-3-carboxamide], for which the half-inhibitory concentration (IC50) came out at 0.031 µM. Then `C[C@@H]1CN(c2ncc(C(F)(F)F)cc2C(=O)Nc2cccc(S(N)(=O)=O)c2)C[C@H](C(F)(F)F)O1` [Example 142, 2-[(2R,6R)-2-methyl-6-(trifluoromethyl)morpholin-4-yl]-N-(3-sulfamoylphenyl)-5-(trifluoromethyl)-pyridine-3-carboxamide], with 1.15 µM.

As to `Cc1nc(N2CCC3(CC2)CC3)c(C(=O)Nc2cccc(S(N)(=O)=O)c2)c(C)c1Cl` [Example 76, 2-(6-azaspiro[2.5]-octan-6-yl)-5-chloro-4,6-dimethyl-N-(3-sulfamoylphenyl) pyridine-3-carboxamide], the concentration for half-maximal inhibition (IC50) came to 0.0022 µM.

As to `COc1ccc(C(=O)Nc2cccc(S(N)(=O)=O)c2)c(N2CCCCCC2)n1` [Example 91, 2-(azepan-1-yl)-6-methoxy-N-(3-sulfamoyl-phenyl)pyridine-3-carboxamide], half-maximal inhibition (IC50) required 0.029 µM.
